This is an account of results in patent publication US9375496B2, “Halogenated compounds for cancer imaging and treatment and methods for their use” (The University of British Columbia, priority 2013, dated 2016).

By IC50 is commonly meant the concentration that inhibits the measured activity by half.

Where two headings read alike, the source gives them in different places.

In experiment [1] the target is T1, recombinant protein AR activation function-1 (AF1) (Homo sapiens, UniProt P10275).
T1 sequence (P10275 144-486 limits assumed): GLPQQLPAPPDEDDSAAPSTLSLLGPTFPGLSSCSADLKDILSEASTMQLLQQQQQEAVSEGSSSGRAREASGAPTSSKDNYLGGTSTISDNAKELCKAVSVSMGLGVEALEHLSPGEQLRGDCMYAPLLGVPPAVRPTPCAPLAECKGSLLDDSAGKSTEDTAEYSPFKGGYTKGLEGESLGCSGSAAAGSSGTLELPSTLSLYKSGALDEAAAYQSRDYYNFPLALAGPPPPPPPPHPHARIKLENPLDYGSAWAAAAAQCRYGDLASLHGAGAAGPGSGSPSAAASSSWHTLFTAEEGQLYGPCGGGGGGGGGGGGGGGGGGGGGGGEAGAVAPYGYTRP
Briefly: Covalent binding to recombinant AR AF1 evaluated by SDS-PAGE. On the procedure: Covalent binding experiments of 1d (also referred to as ^123I-EPI) to recombinant protein AR activation function-1 (AF1) was evaluated by SDS-PAGE (FIG. 15). After 6 h incubation at room temperature, 1d bound to the recombinant protein AR AF1. Less binding of 1d was observed when AR AF1 was pre-incubated with cold Z which is thought to bind to the same site as 1d. The SDS-PAGE gel was stained with Coomassie blue for loading control of the amount of AF1 protein.

The target in a further experiment is T2, AR (Homo sapiens, UniProt P10275, T878A).
T2 construct: LNCaP cells with endogenous AR; endogenous in cells; host or cells: LNCaP
T2 sequence (P10275 1-920 T878A): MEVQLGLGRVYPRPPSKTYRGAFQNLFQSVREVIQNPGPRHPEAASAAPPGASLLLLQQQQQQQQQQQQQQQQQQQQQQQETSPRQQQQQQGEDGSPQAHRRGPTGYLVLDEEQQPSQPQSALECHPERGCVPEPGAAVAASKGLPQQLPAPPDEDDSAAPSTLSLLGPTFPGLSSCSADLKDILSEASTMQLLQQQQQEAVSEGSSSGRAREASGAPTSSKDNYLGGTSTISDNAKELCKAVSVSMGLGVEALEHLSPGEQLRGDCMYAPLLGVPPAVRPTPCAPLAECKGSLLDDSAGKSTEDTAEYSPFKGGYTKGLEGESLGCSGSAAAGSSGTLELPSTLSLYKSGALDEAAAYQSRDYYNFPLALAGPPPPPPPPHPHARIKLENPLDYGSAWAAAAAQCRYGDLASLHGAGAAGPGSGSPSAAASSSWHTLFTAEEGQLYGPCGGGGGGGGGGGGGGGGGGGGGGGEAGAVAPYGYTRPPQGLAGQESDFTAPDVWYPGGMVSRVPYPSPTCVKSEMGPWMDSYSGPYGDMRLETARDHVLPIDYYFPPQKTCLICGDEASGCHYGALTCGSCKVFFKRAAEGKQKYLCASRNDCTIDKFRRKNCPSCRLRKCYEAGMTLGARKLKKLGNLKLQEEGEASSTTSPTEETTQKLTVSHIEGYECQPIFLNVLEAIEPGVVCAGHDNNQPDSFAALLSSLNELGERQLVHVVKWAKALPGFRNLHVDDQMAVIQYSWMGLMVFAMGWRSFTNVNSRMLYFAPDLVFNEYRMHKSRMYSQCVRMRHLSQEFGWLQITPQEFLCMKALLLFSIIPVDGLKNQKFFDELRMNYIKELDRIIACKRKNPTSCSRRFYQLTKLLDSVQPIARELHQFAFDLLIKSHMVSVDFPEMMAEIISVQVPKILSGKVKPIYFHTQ
Nature of the experiment: PSA(6.1 kb)-luciferase reporter assay in LNCaP cells (androgen-induced AR transcriptional activity). The format is cell-based. The following applies: LNCaP, PSA(6.1 kb)-luciferase, 1 h pre-treatment, R1881 1 nM 24 h. On the procedure: The PSA-luciferase (6.1 kb) reporter contains functional AREs to which AR binds in response to androgen to induce luciferase activity. LNCaP cells were transfected with the PSA(6.1 kb)-luciferase reporter for 24 h, and then treated with indicated concentration of 8d (also referred as EPI-iodide or iodinated EPI) with synthetic androgen, R1881 (1 nM) for 24 h. After 24 h of incubation with R1881, the cells were harvested, and relative luciferase activities were determined (FIG. 1A). To determine the IC50, treatments were normalized to the predicted maximal activity induction (in the absence of test compounds, vehicle only) (FIG. 1B).
To measure effect on AR, after the LNCaP cells were transfected with the PSA(6.1 kb)-luciferase reporter for 24 h, they were then treated with DMSO, 5 μM MDV3100, 25 μM Z (also referred to as EPI-002 or EPI), or 1.9 μM 8d with or without 1 nM R1881 for 24 h (FIG. 2A).
LNCaP cells were transiently transfected with PSA (6.1 kb)-luciferase for 24 h prior to pre-treatment with compounds of the invention (e.g., compounds 9d, 10d, 11d) ranging in concentration from 62.5 ng/ml to 1.5 ug/ml for 1 hour before the addition of vehicle, or synthetic androgen, R1881 (1 nM) to induce luciferase production. After 24 h of incubation with R1881, the cells were harvested, and relative luciferase activities were determined. To determine the IC50, treatments were normalized to the predicted maximal activity induction (in the absence of test compounds, vehicle only) (FIG. 1B).
(In a reporter assay the amount or activity of a reporter protein is the signal.)

The mark [2] stands for this setting: Trial 1, read-out: IC50 Trial 1.
[3] abbreviates: Trial 2, read-out: IC50 Trial 2.
The mark [4] stands for this setting: Trial 3, read-out: IC50 Trial 3.
[5] abbreviates: Trial 4, read-out: IC50 Trial 4.
The mark [6] stands for this setting: average of 4 trials, read-out: IC50 Average.

Regarding `CC(C)(c1ccc(OC[C@H](O)CO)cc1)c1ccc(OC[C@H](O)CCl)c([123I])c1` [Compound 1d, (R)-3-(4-(2-(4-((S)-3-chloro-2-hydroxypropoxy)-3- ^123iodophenyl)propan-2-yl)phenoxy)propane-1,2-diol], the “covalent binding to recombinant protein AR AF1” value in experiment [1] (6 h incubation at room temperature) was “bound”. The “binding to AR AF1 after pre-incubation with cold Z” value in experiment [1] (AR AF1 pre-incubated with cold Z) is recorded as “Less binding”.

Consider `CC(C)(c1ccc(OC[C@H](O)CO)cc1)c1ccc(OC[C@H](O)CCl)c(Br)c1` [Compound 9d, (R)-3-(4-(2-(3-bromo-4-((S)-3-chloro-2-hydroxypropoxy)phenyl)propan-2-yl)phenoxy)propane-1,2-diol], for which the IC50 came to 2070 nM at AR (setting [2]); 2740 nM on AR (setting [3]); 2960 nM at AR (setting [4]); 3360 nM on AR (setting [5]); 2780 nM at AR (setting [6]).

`CC(C)(c1ccc(OC[C@H](O)CO)cc1)c1ccc(OC[C@H](O)CCl)c(Cl)c1` [Compound 10d, (R)-3-(4-(2-(3-chloro-4-((S)-3-chloro-2-hydroxypropoxy)phenyl)propan-2-yl)phenoxy)propane-1,2-diol]: the IC50 at AR (setting [2]) was found to be 2530 nM; on AR (setting [3]), 2300 nM; at AR (setting [4]), 2810 nM; on AR (setting [5]) it was 2840 nM; at AR (setting [6]), 2620 nM.

Take `CC(C)(c1ccc(OC[C@H](O)CO)cc1)c1ccc(OC[C@H](O)CCl)c(F)c1` [Compound 11d, (R)-3-(4-(2-(4-((S)-3-chloro-2-hydroxypropoxy)-3-fluorophenyl)propan-2-yl)phenoxy)propane-1,2-diol]: the IC50 on AR (setting [2]) was 5950 nM; on AR (setting [3]), 3600 nM; on AR (setting [4]), 7330 nM; at AR (setting [5]), 5400 nM; on AR (setting [6]) it was 5570 nM.
